What was measured:
[1] = test system: A375 (melanoma); test: In vitro cytotoxic activity assay (MTT), A375; type: cell-based; conditions: Homo sapiens, A-375; cells exposed for 96 hours; 50 % inhibition of cell proliferation; read-out: Cytotoxicity activity IC50, A375 (melanoma)
Experimental: (§1) Compounds 1-15 were screened for their in vitro cytotoxic activity utilizing a 3-(4,5-dimethyl-thiazol-2-yl)-2,5-diphenyltetrazolium bromide (MTT) assay against selected cancer human cell lines consisting of PC3 (prostate), HCT116 (colon), A375 (melanoma), H1299 (lung), MIAPaCa-2 (pancreas), HL60 (leukemia), MCF7 (breast), MDA-MB-231 (breast) (T. Mosmann, J. Immunol. Meth., 1983, 65, 55-63). The cells were cultured at 37° C. in RMPI1640 medium supplemented with 10% fetal bovine serum, 50 IU/mL penicillin, and 50 μg/mL streptomycin in a 5% CO2 incubator. All cells were sub-cultured 3 times/week by trypsinisation. Viable cells were seeded and allowed to adhere for 12 hours before a test drug was added in 96-well plates at an initial density of 1.0×10^5 cells/mL. Tumor cell lines were separately exposed to various concentrations of the tested compounds followed by incubation at a temperature of 37° C. during 96 hours inside a medium of fresh RMPI 1640. Cells were subsequently incubated at 37° C. using MTT at 0.5 mg/mL during 4 hours. After removal of supernatant, formazan crystals were dissolved in isopropanol and the optical density was measured at 570 nm. CX-4945 was used as a positive control.

[2] = test system: HL60 (leukemia); test: In vitro cytotoxic activity assay (MTT), HL60; type: cell-based; conditions: Homo sapiens, HL-60; cells exposed for 96 hours; 50 % inhibition of cell proliferation; read-out: Cytotoxicity activity IC50, HL60 (leukemia)
Experimental: as §1

[3] = test system: H1299 (lung); test: In vitro cytotoxic activity assay (MTT), H1299; type: cell-based; conditions: Homo sapiens, NCI-H1299; cells exposed for 96 hours; 50 % inhibition of cell proliferation; read-out: Cytotoxicity activity IC50, H1299 (lung)
Experimental: as §1

[4] = biological target: T1, recombinant human CK2 (RRββ-holoenzyme) (Homo sapiens, UniProt P68400); test: CK2 Kinase Assay; type: biochemical; conditions: final ATP concentration 15 μM; 10 min at 30° C.; read-out: protein kinase CK2 inhibition IC50
T1 construct: purchased Millipore
T1 sequence (P68400 whole entry): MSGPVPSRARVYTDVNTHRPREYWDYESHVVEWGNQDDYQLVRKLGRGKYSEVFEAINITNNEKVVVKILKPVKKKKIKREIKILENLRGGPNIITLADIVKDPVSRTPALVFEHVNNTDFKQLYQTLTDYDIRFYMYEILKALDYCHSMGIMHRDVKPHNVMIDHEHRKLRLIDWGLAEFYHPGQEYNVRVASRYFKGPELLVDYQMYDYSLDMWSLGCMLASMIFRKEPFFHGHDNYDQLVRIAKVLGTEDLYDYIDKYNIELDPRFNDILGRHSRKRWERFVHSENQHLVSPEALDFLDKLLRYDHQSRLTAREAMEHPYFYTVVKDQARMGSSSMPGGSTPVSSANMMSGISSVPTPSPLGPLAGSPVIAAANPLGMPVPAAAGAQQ
T1 sequence (P67870 whole entry partner): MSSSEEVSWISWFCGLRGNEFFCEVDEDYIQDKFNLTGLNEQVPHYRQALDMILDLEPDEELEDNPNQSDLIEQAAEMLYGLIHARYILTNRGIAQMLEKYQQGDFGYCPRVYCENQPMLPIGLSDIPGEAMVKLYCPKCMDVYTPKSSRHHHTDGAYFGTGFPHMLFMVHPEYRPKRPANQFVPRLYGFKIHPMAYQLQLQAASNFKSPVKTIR
Experimental: CK2 Kinase Assay was conducted using the protocol as described in Pierre F. et al; J. Med. Chem. 2011, 54, 635-654. The tested compounds in aqueous solution were added at a volume of 10 μL to a reaction mixture comprising 10 μL of assay dilution buffer (ADB; 20 mM MOPS, pH 7.2, 25 mM β-glycerol phosphate, 5 mM EGTA, 1 mM sodium orthovanadate, and 1 mM dithiothreitol), 10 μL of substrate peptide (RRRDDDSDDD, dissolved in ADB at a concentration of 1 mM), 10 μL of recombinant human CK2 (RRββ-holoenzyme, 25 ng dissolved in ADB; Millipore). Reactions were initiated by the addition of 10 μL of ATP solution (90% 75 mMMgCl2, 75 μM ATP (final ATP concentration: 15 μM) dissolved in ADB; 10% [γ-33P] ATP (stock 1 mCi/100 μL; 3000 Ci/mmol (Perkin-Elmer) and maintained for 10 min at 30° C. The reactions were quenched with 100 μL of 0.75% phosphoric acid and then transferred to and filtered through a phosphor cellulose filter plate (Millipore). After washing each well five times with 0.75% phosphoric acid, the plate was dried under vacuum for 5 min and, following the addition of 15 μL of scintillation fluid to each well, the residual radioactivity was measured using a Wallac […] counter. The IC50 values were derived from eight concentrations of test inhibitors.

[5] = test system: MCF7 (breast); test: In vitro cytotoxic activity assay (MTT), MCF7; type: cell-based; conditions: Homo sapiens, cells exposed for 96 hours, 50 % inhibition of cell proliferation, read-out: Cytotoxicity activity IC50, MCF7 (breast)
Experimental: as §1

[6] = test system: MDA-MB-231 (breast); test: In vitro cytotoxic activity assay (MTT), MDA-MB-231; type: cell-based; conditions: Homo sapiens, cells exposed for 96 hours, 50 % inhibition of cell proliferation, read-out: Cytotoxicity activity IC50, MDA-MB-231 (breast)
Experimental: as §1

[7] = test system: HCT116 (colon); test: In vitro cytotoxic activity assay (MTT), HCT116; type: cell-based; conditions: Homo sapiens, HCT-116; cells exposed for 96 hours; 50 % inhibition of cell proliferation; read-out: Cytotoxicity activity IC50, HCT116 (colon)
Experimental: as §1

[8] = test system: MIAPaCa-2 (pancreas); test: In vitro cytotoxic activity assay (MTT), MIAPaCa-2; type: cell-based; conditions: Homo sapiens, MIA PaCa-2; cells exposed for 96 hours; 50 % inhibition of cell proliferation; read-out: Cytotoxicity activity IC50, MIAPaCa-2 (pancreas)
Experimental: as §1

[9] = test system: PC3 (prostate); test: In vitro cytotoxic activity assay (MTT), PC3; type: cell-based; conditions: Homo sapiens; cells exposed for 96 hours; 50 % inhibition of cell proliferation; read-out: Cytotoxicity activity IC50, PC3 (prostate)
Experimental: as §1

- IC50 [4]: 8 nM
Compound: O=C(O)c1cc2c(nc(Nc3cccc(Cl)c3)c3ccncc32)[nH]1 [Compound 1, 5-((3-chlorophenyl)amino)-7H-pyrrolo[2,3-c][2,6]naphthyridine-8-carboxylic Acid]
- IC50 [1]: 2900 nM
- IC50 [2]: 2200 nM
- IC50 [3]: 1300 nM
- IC50 [5]: 3500 nM
- IC50 [6]: 3800 nM
- IC50 [7]: 1000 nM
- IC50 [8]: 900 nM
- IC50 [9]: 2100 nM

Source: US12129252B1, “Pyrrolo[2,3-c][2,6]naphthyridine-8-carboxylic acids as CK2 inhibitors” (KING FAISAL UNIVERSITY, priority 2024, dated 2024)
